Experimental data taken from ChEMBL document CHEMBL1201862, “PubChem BioAssay data set” (2004).
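96-well plates; 48 h exposure; 5 concentrations. Endpoints by linear interpolation between flanking doses. Not reached: highest tested concentration assigned. The concentration for 50% growth inhibition is given as GI50.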 Calls of active or inactive are those of the source. Cut-off read from the data, not from the text of the source: active = GI50 up to about 1.1 µM and inactive = higher.

What was measured:
Assay in all cases: NCI anticancer screen, dose series, 48 h
UACC-257 = system: UACC-257
U-251 = system: U-251
RXF 393 = system: RXF 393
HCT-15 = system: HCT-15
NCI-H522 = system: NCI-H522
SW-620 = system: SW-620
OVCAR-4 = system: OVCAR-4
786-0 = system: 786-0
SNB-19 = system: SNB-19
TK-10 = system: TK-10
OVCAR-3 = system: OVCAR-3
OVCAR-5 = system: OVCAR-5
SN12C = system: SN12C
Malme-3M = system: Malme-3M
ACHN = system: ACHN
SR = system: SR

Structure (SMILES) | GI50 (UACC-257) | GI50 (U-251) | GI50 (RXF 393) | GI50 (HCT-15) [µM] | GI50 (NCI-H522) | GI50 (SW-620) | GI50 (OVCAR-4) | GI50 (786-0) | GI50 (SNB-19) | GI50 (TK-10) | GI50 (OVCAR-3) | GI50 (OVCAR-5) | GI50 (SN12C) | GI50 (Malme-3M) | GI50 (ACHN) | GI50 (SR)
CC1=C(C(=O)Nc2ccccc2C)C(c2ccc([N+](=O)[O-])cc2)C(C(=O)Nc2ccccc2C)=C(C)N1 | 55.3 µM (inactive) | > 100 µM (inactive) | 16.4 µM (inactive) | 56.5 | 32 µM (inactive) | 93.3 µM (inactive) | 41.8 µM (inactive) | 53.3 µM (inactive) | 22.8 µM (inactive) | 46.1 µM (inactive) | 40.1 µM (inactive) | > 100 µM (inactive) | 76.7 µM (inactive) | 42.7 µM (inactive) | 30.2 µM (inactive) | 
Cc1cccc(NC(=O)CC#N)c1Cl | > 100 µM (inactive) | > 100 µM (inactive) |  | > 100 | > 100 µM (inactive) | > 100 µM (inactive) |  | > 100 µM (inactive) | > 100 µM (inactive) | > 100 µM (inactive) | > 100 µM (inactive) |  | > 100 µM (inactive) | > 100 µM (inactive) | > 100 µM (inactive) | > 100 µM (inactive)
CCCCSN1C(=O)c2ccccc2C1=S | 57.3 µM (inactive) | > 100 µM (inactive) | 81.3 µM (inactive) | > 100 | > 10 µM (inactive) | 32.9 µM (inactive) | 76.6 µM (inactive) | 34.1 µM (inactive) | > 100 µM (inactive) | > 100 µM (inactive) | > 100 µM (inactive) | > 100 µM (inactive) | 71.3 µM (inactive) | 63.7 µM (inactive) | > 100 µM (inactive) | 
CCOC(=O)C1=C(C)N(c2ccccc2)C2=C(C(=O)N(c3ccccc3)C2c2ccccc2)C1c1ccccc1 (stereo not given) | > 100 µM (inactive) | > 100 µM (inactive) | > 100 µM (inactive) |  | > 100 µM (inactive) | > 100 µM (inactive) | > 100 µM (inactive) | > 100 µM (inactive) | > 100 µM (inactive) | > 100 µM (inactive) | > 100 µM (inactive) | > 100 µM (inactive) | > 100 µM (inactive) | > 100 µM (inactive) | > 100 µM (inactive) | > 100 µM (inactive)
O=C(Nc1ccc(Nc2ccc(NC(=O)c3ccccc3)c3c2C(=O)c2ccccc2C3=O)c2c1C(=O)c1ccccc1C2=O)c1ccccc1 | > 100 µM (inactive) | > 100 µM (inactive) | > 100 µM (inactive) | > 100 | > 100 µM (inactive) | > 100 µM (inactive) | > 100 µM (inactive) | 52.5 µM (inactive) | > 100 µM (inactive) | > 100 µM (inactive) | > 100 µM (inactive) |  | > 100 µM (inactive) | > 100 µM (inactive) | > 100 µM (inactive) | > 100 µM (inactive)
O=C1C=CC(=O)C2C1Cc1ccccc1C2c1ccccc1 (stereo not given) | 28.1 µM (inactive) | 18.2 µM (inactive) |  | 36.6 | 20.9 µM (inactive) | 27.7 µM (inactive) | 20.5 µM (inactive) | 38.5 µM (inactive) | > 100 µM (inactive) | 74.1 µM (inactive) | 29.6 µM (inactive) | > 100 µM (inactive) | 39.7 µM (inactive) | 59.4 µM (inactive) | 50.4 µM (inactive) | 23.7 µM (inactive)
CC(=O)O[C@]1(C)OC(=O)[C@@H](C)N1[N+](=O)[O-] | > 100 µM (inactive) | > 100 µM (inactive) | > 100 µM (inactive) | > 100 | > 100 µM (inactive) | > 100 µM (inactive) | > 100 µM (inactive) | > 100 µM (inactive) | > 100 µM (inactive) | > 100 µM (inactive) | > 100 µM (inactive) | > 100 µM (inactive) | > 100 µM (inactive) | > 100 µM (inactive) | 60 µM (inactive) | 34.9 µM (inactive)
CCN(CC)CCOC(=O)/C(=C/c1ccc(OC)cc1)c1cc(OC)c(OC)c(OC)c1 | 5.46 µM (inactive) | 4.06 µM (inactive) | 2.15 µM (inactive) | 4.82 | 2.75 µM (inactive) | 4.18 µM (inactive) | 31.4 µM (inactive) | 7.64 µM (inactive) | 13.4 µM (inactive) | 20.3 µM (inactive) | 4.95 µM (inactive) | 16.4 µM (inactive) | 16.1 µM (inactive) | 10.1 µM (inactive) | 7.67 µM (inactive) | 
Cc1cc(C(=C2C=CC(=[N+](C)C)C=C2)c2ccc([N+](C)(C)C)cc2)ccc1N(C)C | 12.1 µM (inactive) | 5.53 µM (inactive) | 5.65 µM (inactive) | 33 | 15.9 µM (inactive) | 5.31 µM (inactive) | 15.8 µM (inactive) | 21.6 µM (inactive) | 24 µM (inactive) | 1.57 µM (inactive) | 12 µM (inactive) | 21.9 µM (inactive) | 5.07 µM (inactive) | 15.8 µM (inactive) | 10.7 µM (inactive) | 1.62 µM (inactive)
